Source: PMC4878744, “Structure, Regulation, and Inhibition of the Quorum-Sensing Signal Integrator LuxO” (PLoS Biology, 2016)

Assays:
[1] = molecular target: T1, V. vulnificus LuxO-C (Vibrio vulnificus, UniProt Q8CWJ5); details: pH 7.4, 23°C; turnover number versus LuxO-C concentration only in Figure 4A
[2] = molecular target: T1, V. vulnificus LuxO-C; assay: NADH-coupled ATPase assay, fit to one-inhibitor-per-oligomer model; format: biochemical; parameters: catalytic (C) domain only, R and D domains absent; C-terminal His6 tag; expressed in E. coli BL21(DE3); hexamer 173 kDa theoretical; details: competitive with ATP; 100 μM LuxO-C, 2 mM ATP, pH 7.4, 23°C, 4% DMSO; K is affinity relative to ATP (dimensionless ratio)

T1 sequence (Q8CWJ5 132-378): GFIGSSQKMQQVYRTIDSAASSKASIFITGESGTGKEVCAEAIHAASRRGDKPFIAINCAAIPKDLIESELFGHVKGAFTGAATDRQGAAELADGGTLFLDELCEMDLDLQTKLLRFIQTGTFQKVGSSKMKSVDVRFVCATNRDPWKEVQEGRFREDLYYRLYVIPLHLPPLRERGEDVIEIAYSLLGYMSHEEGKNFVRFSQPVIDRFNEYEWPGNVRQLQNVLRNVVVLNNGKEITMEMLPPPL

Compound	NADH-coupled ATPase assay [1]	K (= Kd^ATP / Kd^AzaU) [2]
Nc1ncnc2c1ncn2[C@@H]1O[C@H](COP(=O)(O)OP(=O)(O)OP(=O)(O)O)[C@@H](O)[C@H]1O [ATP]	V. vulnificus LuxO-C	–
AzaU	–	34 ± 2
